Key:
[1] = In-vitro human microsomal stability; assay type: in vitro ADME; settings: human microsomes, 1 microMolar compound, at T = 60 minutes
Description: Human and mouse microsomal stability was determined for select compounds following the method of Houston (Houston, J. B; Biochem. Pharmacol. 47, (1994),1469).
1 μM concentration of compound and separate human and mouse microsomes (0.3 mg/mL, BD bioscience) were used in the in-vitro assay. To ensure proper energy supply for microsomal degradation of compound, an energy regenerating system comprised of 100 mM potassium phosphate, 2 mM NADPH, 3 mM MgCl2, pH=7.4. and the microsomal protein is added to each sample and the resulting suspension is then incubated in duplicate for 60 min at 37° C. in a rotary shaker. A control is run for each test agent in duplicate omitting NADPH to detect NADPH-free degradation. At T=0 and T=60 min., an aliquot is removed from each experimental and control reaction and then mixed with an equal volume of ice-cold Stop Solution (consisting of 0.3% acetic acid in acetonitrile containing haloperidol and diclofenac as internal standards). […] The samples are then centrifuged to remove precipitated protein, and the supernatants are then analyzed by LC-MS/MS to determine the percentage of compound remaining. […] After separation on a C18 reverse phase HPLC column (Agilent, Waters, or equivalent) using an acetonitrile-water gradient system, peaks were analyzed by mass spectrometry (MS) using ESI ionization in MRM mode.

humans = settings: cited from earlier work
[2] = test system: spinal nerve ligation (SNL) mouse model; assay: Intrathecal (i.t.) SNL-mouse model of neuropathic pain, von Frey mechanical allodynia; assay type: in vivo, FVB male mice
Text: To measure the neuropathic pain inhibiting affects of the MMP inhibitors of the present invention, the spinal nerve ligation (SNL) mouse model was run on a select number of compounds. This model which began with the work of Bennet and coworkers (Bennet, G. J. et al. Pain, 33, (1988), 87-107) and was optimized by Kim and Chung (Kim, S. H.; Chung, J. M. Pain, 50, (1992), 355-363) entails first, under magnification, the removal of one-third of the transverse process and then identifying and then dissecting free the L5 spinal nerve from the adjacent L4 spinal nerve in the mouse. The L5 spinal nerve is then tightly ligated using 6.0 silk suture. The nerve injury leads to hyperalgesia which manifests itself by enhanced responses to mechanical, heat and/or cooling stimuli. In this case, mechanical hyperalgesia is tested via Von Frey monofilaments in which filaments of varying thicknesses and bending force are individually applied to the plantar surface of the foot of the mouse. The threshold force necessary for paw withdrawal decreases dramatically after the nerve surgery. Potent pain inhibitors will reverse this affect resulting in greater force needing to be applied to cause the rodent paw to withdrawal.
Following preoperative baseline (Day −2) paw threshold measurement, FVB male mice were subjected to SNL injury (Day −1). The next day (Day 0) after SNL surgery, the animals were tested for post-operative baseline threshold measurements for mechanical allodynia; and the animals were then randomly assigned to one of 3 treatment groups (see Table 9). Over the course of the study, paw withdrawal threshold of these animals was measured in response to mechanical stimulation using the von Frey Monofilament Test.
To avoid systemic effects of the MMP inhibitors, the MMP inhibitors of the present invention were delivered into the cerebral spinal fluid (CSF) space around lumbosacral spinal cord via intrathecal (i.t.) administration, with the idea of targeting MMPs in the DRG, spinal cord, and spinal CSF. Intrathecal MMP inhibitor administration could then target not only spinal cord cells but also DRG cells. Each intrathecal (i.t.) injection was carried out according to the technique of Hylden and Wilcox (Hylden J L, Wilcox G L. Eur. J. Pharmacol., 67, (1980), 313-6) 5.2 mg of each of the MMP inhibitors were first dissolved in 140 microliters of DMSO and then put into 1260 microliters of 0.5% hydroxypropyl cellulose (HPC) in water to make a fine suspension composed of compound in 10% DMSO-0.5% hydroxypropyl cellulose. 10 microliters of the mixture was injected into the intrathecal space of male FVB mice (weighing 22-25 grams each and obtained from the Jackson Laboratories, Bar Harbor, Me.), by lumbar puncture in a volume of 10 μl/mouse using a Hamilton microsyringe via a 30 gauge needle inserted between lumbar vertebrae 5 and 6. In brief, each animal was held firmly by the pelvic girdle in one hand, while the needle was inserted into the tissue on the right side of the L5 or L6 spinous process. The needle was moved forward and slipped into the groove between the spinous process and transverse process and gently moved forward to the intervertebral space at ˜10° angle. As the needle was inserted (˜0.5 cm) within the vertebral column a tail flick was evident, and the solution was then injected.
Tactile Allodynia Test. Mechanical allodynia was measured using the calibrated von Frey filaments (Semmes-Weinstein monofilaments; Stoelting, Wood Dale, Ill., U.S.A.). The plantar surface of the left injured paw of each animal was tested as described by Chaplan et al. (Journal of Neuroscience Methods, 53, (1994), 55-63). The Fifty percent paw withdrawal threshold response was determined by sequentially increasing or decreasing the stimulus strength according to the “up-down method” of Dixon (Annual Review Pharmacology Toxicology, 20, (1980), 441-462). […]

Cc1ccc(C#Cc2ccc(S(=O)(=O)N[C@H](Cc3c[nH]c4ccccc34)C(=O)O)s2)cc1 [Compound 5, (R)-3-(1H-Indol-3-yl)-2-(5-p-tolylethynyl-thiophene-2-sulfonylamino)-propionic acid]
Mean Remaining Parent with NADPH (%) ([1]; with NADPH): 86% | Mean Remaining Parent without NADPH (%) ([1]; without NADPH (control)): 89% | Musculoskeletal toxicities (humans; humans (S-3304: animals or man)): no evidence of musculoskeletal toxicities | Adverse events in humans (humans; humans): headaches, somnolence, vomiting, nausea and gastrointestinal pain | Paw withdrawal threshold, mean, Day 5 ([2]; i.t. 10 μl/mouse daily day 1-6): 0.079 grams | Paw withdrawal threshold, mean, Day 7 ([2]; i.t. 10 μl/mouse daily day 1-6): 0.190 grams | Paw withdrawal threshold, mean, Day 1 ([2]; i.t. 10 μl/mouse daily day 1-6, testing 2 hr after first i.t. injection): 0.098 grams | Paw withdrawal threshold, mean, Day 0 Postoperative Baseline ([2]; i.t. study, post operative injury baseline, before treatment): 0.050 grams | Paw withdrawal threshold, mean, Day(-2) Pre-operative Baseline ([2]; i.t. study, testing prior to SNL injury, before treatment): 1.265 grams
